Results as given in patent publication US6110934A, “Substituted benzamide derivatives and their use as anticonvulsants” (SmithKline Beecham p.l.c., priority 1996, dated 2000).
Structures can show the parent of a compound that is named as a salt.

The molecules below were run against novel receptor obtainable from rat forebrain tissue (assay: Radioligand binding assay, displacement of [3H]-Compound A). Conditions: competition with [3H]-Compound A (usually 20 nM), room temperature, 1 hour.
Protocol: The affinity of test compounds to the novel receptor site is assessed as follows. Whole forebrain tissue is obtained from rats. The tissue is first homogenised in buffer (usually 50 mM Tris/HCl, pH 7.4). The homogenised tissue is washed by centrifugation and resuspension in the same buffer, then stored at -70° C. until used. […] The final concentration of [3H]-Compound A in the mixture is usually 20 nM. The mixture is incubated at room temperature for 1 hour. [3H]-Compound A bound to the tissue is then separated from unbound [3H]-Compound A by filtration through Watman GF/B glass fibre filters. The filters are then washed rapidly with ice-cold buffer. The amount of radioactivity bound to the tissue trapped on the filters is measured by addition of liquid scintillation cocktail to the filters followed by counting in a liquid scintillation counter. In order to determine the amount of "specific" binding of [3H]-Compound A, parallel assays are carried out as above in which [3H]-Compound A and tissue are incubated together in the presence of unlabelled Compound A (usually 3 μM). The amount of binding of [3H]-Compound A remaining in the presence of this unlabelled compound is defined as "non-specific" binding. This amount is subtracted from the total amount of [3H]-Compound A binding (i.e. that present in the absence of unlabelled compound) to obtain the amount of "specific" binding of [3H]-Compound A to the novel site. The affinity of the binding of test compounds to the novel site can be estimated by incubating together [3H]-Compound A and tissue in the presence of a range of concentrations of the compound to be tested. The decrease in the level of specific [3H]-Compound A binding as a result of competition by increasing concentrations of the compound under test is plotted graphically, and non-linear regression analysis of the resulthant curve is used to provide an estimate of compound affinity in terms of pKi value.

**Q.** With COc1cc(N)c(Cl)cc1C(=O)Nc1cccc2c1CCN(C)C2.Cl [Example 1, N-(2-Methyl-1,2,3,4-tetrahydroisoquinolin-5-yl)-4-amino-5-chloro-2-methoxy-benzamide Hydrochloride] as the molecule, how does the pKi read?
**A.** greater than 7

**Q.** How did the pKi turn out when COc1cc(N)c(Br)cc1C(=O)Nc1cccc2c1CCN(C)C2 [Example 7, N-(2-Methyl-1,2,3,4-tetrahydroisoquinolin-5-yl)-4-amino-5-bromo-2-methoxybenzamide] was run?
**A.** greater than 7

**Q.** CCCOc1cc(N)c(Cl)cc1C(=O)Nc1cccc2c1CCN(C)C2 [Example 10, N-(2-Methyl-1,2,3,4-tetrahydroisoquinolin-5-yl)-4-amino-5-chloro-2-propoxy-benzamide] was tested. Which pKi did it give?
**A.** greater than 7

**Q.** COc1cc(N)c(I)cc1C(=O)Nc1cccc2c1CCN(C)C2 [Example 13, N-(2-Methyl-1,2,3,4-tetrahydroisoquinolin-5-yl)-4-amino-5-iodo-2-methoxybenzamide] was tested. Which pKi did it give?
**A.** greater than 7

**Q.** For COc1cc(OC)c(C(=O)Nc2cccc3c2CCN(C)C3)cc1Cl [Example 16, N-(2-Methyl-1,2;3,4-tetrahydroisoquinolin-5-yl)-5-chloro-2,4-dimethoxybenzamide], which pKi is on record?
**A.** greater than 7

**Q.** For COc1cc(OC)c(C(=O)Nc2cccc3c2CCN(C)C3)cc1Br [Example 17, N-(2-Methyl-1,2,3,4-tetrahydroisoquinolin-5-yl)-5-bromo-2,4-dimethoxybenzamide], which pKi is on record?
**A.** greater than 7

**Q.** Which pKi does the source give for COc1cc(OC)c(C(=O)Nc2cccc3c2CCNC3)cc1Cl [Example 19, N-(1,2,3,4-Tetrahydroisoquinolin-5-yl)-5-chloro-2,4-dimethoxybenzamide] here?
**A.** greater than 7

**Q.** For COc1cc(C)c(Cl)cc1C(=O)Nc1cccc2c1CCN(C)C2 [Example 20, N-(2-Methyl-1,2,3,4-tetrahydroisoquinolin-5-yl)-5-chloro-2-methoxy-4-methylbenzamide], which pKi is on record?
**A.** greater than 7

**Q.** CCOc1cc(OC)c(C(=O)Nc2cccc3c2CCN(C)C3)cc1Cl [Example 23, N-(2-Methyl-1,2,3,4-tetrahydroisoquinolin-5-yl)-5-chloro-4-ethoxy-2-methoxybenzamide] was tested. Which pKi did it give?
**A.** greater than 7

**Q.** How did the pKi turn out when COc1cc(C)c(Br)cc1C(=O)Nc1cccc2c1CCN(C)C2 [Example 25, N-(2-Methyl-1,2,3,4-tetrahydroisoquinolin-5-yl)-5-bromo-2-methoxy-4-methylbenzamide] was run?
**A.** greater than 7

**Q.** How did the pKi turn out when COc1cc(C(C)(C)C)ccc1C(=O)Nc1cccc2c1CCN(C)C2.Cl [Example 35, N-(2-Methyl-1,2,3,4-tetrahydroisoquinolin-5-yl)-4-tert-butyl-2-methoxybenzamide Hydrochloride] was run?
**A.** greater than 7

**Q.** How did the pKi turn out when CCc1cc(OC)c(C(=O)Nc2cccc3c2CCN(C)C3)cc1Cl [Example 37, N-(2-Methyl-1,2,3,4-tetrahydroisoquinolin-5-yl)-4-ethyl-2-methoxy-5-chloro Benzamide, Hydrochloride] was run?
**A.** greater than 7

**Q.** COc1cc(OC(C)C)c(Br)cc1C(=O)Nc1cccc2c1CCN(C)C2.Cl [Example 45, N-(2-Methyl-1,2,3,4-tetrahydroisoquinolin-5-yl)-5-bromo-4-iso-propoxy-2-methoxybenzamide, Hydrochloride] was tested. Which pKi did it give?
**A.** greater than 7

**Q.** For COc1cc(C(C)C)c(C(F)(F)F)cc1C(=O)Nc1cccc2c1CCN(C)C2.Cl [Example 46, N-(2-Methyl-1,2,3,4-tetrahydroisoquinolin-5-yl)-4-iso-propyl-5-trifluoromethyl-2-methoxybenzamide, Hydrochloride], which pKi is on record?
**A.** greater than 7

**Q.** For COc1ccc(C(=O)C(C)C)cc1C(=O)Nc1cccc2c1CCN(C)C2 [Example 49, N-(2-Methyl-1,2,3,4-tetrahydroisoquinolin-5-yl) 5-iso-butyroyl-2-methoxy-benzamide Hydrochloride], which pKi is on record?
**A.** greater than 7

**Q.** Which pKi does the source give for COc1ccc(C(=O)C(C)(C)C)cc1C(=O)Nc1cccc2c1CCN(C)C2.Cl [Example 50, N-(2-Methyl-1,2,3,4-tetrahydroisoquinolin-5-yl)-5-pivaloyl-2-methoxybenzamide, Hydrochloride] here?
**A.** greater than 7

**Q.** With COc1cc(OC)c(C(=O)Nc2ccc3c(c2)CN(C)CC3)cc1Br.Cl [Example 52, N-(2-Methyl-1,2,3,4-tetrahydroisoquinolin-7-yl)-5-bromo-2,4-dimethoxybenzamide, Hydrochloride Salt] as the molecule, how does the pKi read?
**A.** greater than 7

**Q.** With CCc1cc(OC)c(C(=O)Nc2cccc3c2CCN(C)C3)cc1C(F)(F)F.Cl [Example 68, N-(2-Methyl-1,2,3,4-tetrahydroisoquinolin-5-yl)-4-ethyl-2-methoxy-5-trifluoromethylbenzamide, Hydrochloride] as the molecule, how does the pKi read?
**A.** greater than 7

**Q.** For COc1cc(OC(C)C)c(C(C)=O)cc1C(=O)Nc1cccc2c1CCN(C)C2.Cl [Example 70, N-(2-Methyl-1,2,3,4-tetrahydroisoquinolin-5-yl)-2-methoxy-4-iso-propyloxy-5-acetyl-benzamide, Hydrochloride], which pKi is on record?
**A.** greater than 7

**Q.** How did the pKi turn out when COc1cc(OC(C)C)c(Cl)cc1C(=O)Nc1cccc2c1CCN(C)C2.Cl [Example 71, N-(2-Methyl-1,2,3,4-tetrahydroisoquinolin-5-yl)-5-chloro-2-methoxy-4-iso-propoxybenzamide, Hydrochloride] was run?
**A.** greater than 7
